Measurements taken from ChEMBL document CHEMBL1140860, “Synthesis and evaluation of dihydroartemisinin and dihydroartemisitene acetal dimers showing anticancer and antiprotozoal activity” (Bioorg Med Chem, 2009).

What was measured:
CCRF-CEM = experiment: Growth inhibition of human CCRF-CEM cells after 48 hrs by sulforhodamine B assay; assay type: functional
HL-60 = experiment: Growth inhibition of human HL-60(TB) cells after 48 hrs by sulforhodamine B assay; assay type: functional; conditions: HL-60, 48 h
K562 = experiment: Growth inhibition of human K562 cells after 48 hrs by sulforhodamine B assay; assay type: functional; conditions: K562, 48 h
[1] = Growth inhibition of human […] cells after 48 hrs by sulforhodamine B assay; assay type: functional
SR = experiment: Growth inhibition of human SR cells after 48 hrs by sulforhodamine B assay; assay type: functional
A549 = experiment: Growth inhibition of human A549 cells after 48 hrs by sulforhodamine B assay; assay type: functional; conditions: A549, 48 h
HCC 2998 = experiment: Growth inhibition of human HCC2998 cells after 48 hrs by sulforhodamine B assay; assay type: functional; conditions: HCC 2998, 48 h
HCT-116 = experiment: Growth inhibition of human HCT116 cells after 48 hrs by sulforhodamine B assay; assay type: functional; conditions: HCT-116, 48 h
HCT-15 = experiment: Growth inhibition of human HCT15 cells after 48 hrs by sulforhodamine B assay; assay type: functional; conditions: HCT-15, 48 h
HT-29 = experiment: Growth inhibition of human HT-29 cells after 48 hrs by sulforhodamine B assay; assay type: functional; conditions: HT-29, 48 h
KM12 = experiment: Growth inhibition of human KM12 cells after 48 hrs by sulforhodamine B assay; assay type: functional; conditions: KM12, 48 h
SW-620 = experiment: Growth inhibition of human SW620 cells after 48 hrs by sulforhodamine B assay; assay type: functional; conditions: SW-620, 48 h
SF-268 = experiment: Growth inhibition of human SF268 cells after 48 hrs by sulforhodamine B assay; assay type: functional; conditions: SF-268, 48 h
SF-295 = experiment: Growth inhibition of human SF295 cells after 48 hrs by sulforhodamine B assay; assay type: functional; conditions: SF-295, 48 h
SF-539 = experiment: Growth inhibition of human SF539 cells after 48 hrs by sulforhodamine B assay; assay type: functional; conditions: SF-539, 48 h
SNB-19 = experiment: Growth inhibition of human SNB19 cells after 48 hrs by sulforhodamine B assay; assay type: functional; conditions: SNB-19, 48 h
LOX IMVI = experiment: Growth inhibition of human LOXIMVI cells after 48 hrs by sulforhodamine B assay; assay type: functional
M14 = experiment: Growth inhibition of human M14 cells after 48 hrs by sulforhodamine B assay; assay type: functional; conditions: M14, 48 h
SK-MEL-2 = experiment: Growth inhibition of human SK-MEL-2 cells after 48 hrs by sulforhodamine B assay; assay type: functional; conditions: SK-MEL-2, 48 h
SK-MEL-28 = experiment: Growth inhibition of human SK-MEL-28 cells after 48 hrs by sulforhodamine B assay; assay type: functional; conditions: SK-MEL-28, 48 h
SK-MEL-5 = experiment: Growth inhibition of human SK-MEL-5 cells after 48 hrs by sulforhodamine B assay; assay type: functional; conditions: SK-MEL-5, 48 h
UACC-257 = experiment: Growth inhibition of human UACC257 cells after 48 hrs by sulforhodamine B assay; assay type: functional; conditions: UACC-257, 48 h
UACC-62 = experiment: Growth inhibition of human UACC62 cells after 48 hrs by sulforhodamine B assay; assay type: functional; conditions: UACC-62, 48 h
IGROV-1 = experiment: Growth inhibition of human IGROV1 cells after 48 hrs by sulforhodamine B assay; assay type: functional; conditions: IGROV-1, 48 h
OVCAR-3 = experiment: Growth inhibition of human OVCAR-3 cells after 48 hrs by sulforhodamine B assay; assay type: functional; conditions: OVCAR-3, 48 h
OVCAR-5 = experiment: Growth inhibition of human OVCAR5 cells after 48 hrs by sulforhodamine B assay; assay type: functional; conditions: OVCAR-5, 48 h
OVCAR-8 = experiment: Growth inhibition of human OVCAR8 cells after 48 hrs by sulforhodamine B assay; assay type: functional; conditions: OVCAR-8, 48 h
SK-OV-3 = experiment: Growth inhibition of human SKOV3 cells after 48 hrs by sulforhodamine B assay; assay type: functional; conditions: SK-OV-3, 48 h
A498 = experiment: Growth inhibition of human A498 cells after 48 hrs by sulforhodamine B assay; assay type: functional; conditions: A498, 48 h
CAKI-1 = experiment: Growth inhibition of human Caki1 cells after 48 hrs by sulforhodamine B assay; assay type: functional; conditions: CAKI-1, 48 h
RXF 393 = experiment: Growth inhibition of human RXF393 cells after 48 hrs by sulforhodamine B assay; assay type: functional; conditions: RXF 393, 48 h
SN12C = experiment: Growth inhibition of human SN12C cells after 48 hrs by sulforhodamine B assay; assay type: functional
TK-10 = experiment: Growth inhibition of human TK10 cells after 48 hrs by sulforhodamine B assay; assay type: functional; conditions: TK-10, 48 h
PC-3 = experiment: Growth inhibition of human PC3 cells after 48 hrs by sulforhodamine B assay; assay type: functional; conditions: PC-3, 48 h
DU-145 = experiment: Growth inhibition of human DU145 cells after 48 hrs by sulforhodamine B assay; assay type: functional; conditions: DU-145, 48 h
MCF7 = experiment: Growth inhibition of human MCF7 cells after 48 hrs by sulforhodamine B assay; assay type: functional; conditions: MCF7, 48 h
NCI/ADR-RES = experiment: Growth inhibition of human NCI/ADR-RES cells after 48 hrs by sulforhodamine B assay; assay type: functional
MDA-MB-231 = experiment: Growth inhibition of human MDA-MB-231 cells after 48 hrs by sulforhodamine B assay; assay type: functional; conditions: MDA-MB-231, 48 h
[2] = Growth inhibition of human Hs 578T cells after 48 hrs by sulforhodamine B assay; assay type: functional
MDA-MB-435 = experiment: Growth inhibition of human MDA-MB-435 cells after 48 hrs by sulforhodamine B assay; assay type: functional; conditions: MDA-MB-435, 48 h
MDA-N = experiment: Growth inhibition of human MDA-N cells after 48 hrs by sulforhodamine B assay; assay type: functional
Plasmodium falciparum = experiment: Antimalarial activity after 72 hrs against chloroquine-sensitive Plasmodium falciparum D6 infected in erythrocytes by LDH assay; assay type: functional, organism-based; conditions: D6, 72 h
[3] = Selectivity index, ratio of TC50 for african green monkey (Cercopithecus aethiops) Vero cells to IC50 for chloroquine-resistant Plasmodium falciparum W2; assay type: toxicity, cell-based
EKVX = experiment: Growth inhibition of human EKVX cells after 48 hrs by sulforhodamine B assay; assay type: functional
HOP-92 = experiment: Growth inhibition of human HOP92 cells after 48 hrs by sulforhodamine B assay; assay type: functional; conditions: HOP-92, 48 h
NCI-H226 = experiment: Growth inhibition of human NCI-H226 cells after 48 hrs by sulforhodamine B assay; assay type: functional; conditions: NCI-H226, 48 h
NCI-H23 = experiment: Growth inhibition of human NCI-H23 cells after 48 hrs by sulforhodamine B assay; assay type: functional; conditions: NCI-H23, 48 h
NCI-H322M = experiment: Growth inhibition of human NCI-H322M cells after 48 hrs by sulforhodamine B assay; assay type: functional
NCI-H522 = experiment: Growth inhibition of human NCI-H522 cells after 48 hrs by sulforhodamine B assay; assay type: functional; conditions: NCI-H522, 48 h
COLO 205 = experiment: Growth inhibition of human COLO205 cells after 48 hrs by sulforhodamine B assay; assay type: functional; conditions: COLO 205, 48 h

## COCC(CO[C@H]1O[C@@H]2O[C@@]3(C)CC[C@H]4[C@H](C)CC[C@@H]([C@H]1C)[C@@]24OO3)O[C@H]1O[C@@H]2O[C@@]3(C)CC[C@H]4[C@H](C)CC[C@@H]([C@H]1C)[C@@]24OO3 (stereo not given in full)
CCRF-CEM
  GI50: 19 nM
HL-60
  GI50: 28 nM
K562
  GI50: 27 nM
[1]
  GI50: 4 nM
SR
  GI50: 15 nM
A549
  GI50: 61 nM
HCC 2998
  GI50: 108 nM
HCT-116
  GI50: 12 nM
HCT-15
  GI50: 17 nM
HT-29
  GI50: 19 nM
KM12
  GI50: 18 nM
SW-620
  GI50: 15 nM
SF-268
  GI50: 6290 nM
SF-295
  GI50: 4630 nM
SF-539
  GI50: 4040 nM
SNB-19
  GI50: 249 nM
LOX IMVI
  GI50: 23 nM
M14
  GI50: 49 nM
SK-MEL-2
  GI50: 122 nM
SK-MEL-28
  GI50: 5750 nM
SK-MEL-5
  GI50: 496 nM
UACC-257
  GI50: 159 nM
UACC-62
  GI50: 135 nM
IGROV-1
  GI50: 4200 nM
OVCAR-3
  GI50: 65 nM
OVCAR-5
  GI50: 104 nM
OVCAR-8
  GI50: 130 nM
SK-OV-3
  GI50: 10900 nM
A498
  GI50: 148 nM
CAKI-1
  GI50: 192 nM
RXF 393
  GI50: 2970 nM
SN12C
  GI50: 153 nM
TK-10
  GI50: 58 nM
PC-3
  GI50: 19 nM
DU-145
  GI50: 8340 nM
MCF7
  GI50: 150 nM
NCI/ADR-RES
  GI50: 533 nM
MDA-MB-231
  GI50: 13100 nM
[2]
  GI50: 74 nM
MDA-MB-435
  GI50: 443 nM
MDA-N
  GI50: 518 nM
Plasmodium falciparum
  IC50: 17200 nM
[3]
  selectivity ratio: > 159
EKVX
  GI50: 689 nM
HOP-92
  GI50: 71 nM
NCI-H226
  GI50: 87 nM
NCI-H23
  GI50: 81 nM
NCI-H322M
  GI50: 5960 nM
NCI-H522
  GI50: 58 nM
COLO 205
  GI50: 11 nM

## C[C@H]1[C@@H](OCC(=O)CO[C@H]2O[C@@H]3O[C@@]4(C)CC[C@H]5[C@H](C)CC[C@@H]([C@H]2C)[C@@]35OO4)O[C@@H]2O[C@@]3(C)CC[C@H]4[C@H](C)CC[C@@H]1[C@@]24OO3
CCRF-CEM
  GI50: < 10 nM
HL-60
  GI50: < 10 nM
K562
  GI50: < 10 nM
[1]
  GI50: < 10 nM
SR
  GI50: < 10 nM
A549
  GI50: < 10 nM
HCC 2998
  GI50: < 10 nM
HCT-116
  GI50: < 10 nM
HCT-15
  GI50: < 10 nM
HT-29
  GI50: < 10 nM
KM12
  GI50: < 10 nM
SW-620
  GI50: < 10 nM
SF-268
  GI50: 2030 nM
SF-295
  GI50: 7240 nM
SF-539
  GI50: 10100 nM
SNB-19
  GI50: 13300 nM
LOX IMVI
  GI50: < 10 nM
M14
  GI50: < 10 nM
SK-MEL-2
  GI50: 31 nM
SK-MEL-28
  GI50: 11700 nM
SK-MEL-5
  GI50: < 10 nM
UACC-257
  GI50: < 10 nM
UACC-62
  GI50: < 10 nM
IGROV-1
  GI50: 1740 nM
OVCAR-3
  GI50: < 10 nM
OVCAR-5
  GI50: < 10 nM
OVCAR-8
  GI50: < 10 nM
SK-OV-3
  GI50: 15800 nM
A498
  GI50: 15400 nM
CAKI-1
  GI50: 77 nM
RXF 393
  GI50: 12600 nM
SN12C
  GI50: < 10 nM
TK-10
  GI50: 278 nM
PC-3
  GI50: < 10 nM
DU-145
  GI50: 11200 nM
MCF7
  GI50: < 10 nM
NCI/ADR-RES
  GI50: 40 nM
MDA-MB-231
  GI50: 3330 nM
[2]
  GI50: 16200 nM
MDA-MB-435
  GI50: 17 nM
MDA-N
  GI50: 26 nM
Plasmodium falciparum
  IC50: 1100 nM
[3]
  selectivity ratio: > 23800
EKVX
  GI50: 78 nM
HOP-92
  GI50: 21 nM
NCI-H226
  GI50: 331 nM
NCI-H23
  GI50: < 10 nM
NCI-H322M
  GI50: 8420 nM
NCI-H522
  GI50: 18 nM
COLO 205
  GI50: < 10 nM
